Measurements published in PMC8513058, “Synthesis and Evaluation of Novel 1,2,6-Thiadiazinone Kinase Inhibitors as Potent Inhibitors of Solid Tumors” (Molecules, 2021).
pIC50: −log10 of the molar value. Like-named read-outs stand apart in the source and are kept apart here.

Experiments:
[1] = system: DU145 cells; assay: Cancer cell line viability screen (alamarBlue), DU145; details: Homo sapiens, DU-145, 72 h, read-out: IC50 DU145
Procedure: (§1) This included pancreatic, bladder, prostate, breast, chordoma, and lung cancer cell lines while a skin fibroblast cell line was used as a toxicity control [33, 34, 35, 36].
(§2) DU145 and MCF-7 cells were cultured in MEM medium supplemented with 10% FBS and 1% penicillin/streptomycin. […] Cells were seeded in 384-well plates and were treated with test compound in quadruplicate 24 h after plating. Cell viability was assessed at 72 h using alamarBlue (ThermoFisher, Waltham, MA, USA). […] IC50 values were determined by nonlinear regression using GraphPad PrismTM software (GraphPad Software Inc., San Diego, CA, US).

[2] = system: MCF-7 cells; assay: Cancer cell line viability screen (alamarBlue), MCF7; details: Homo sapiens, MCF7, 72 h, read-out: IC50 MCF7
Procedure: as §1, §2

[3] = system: PANC-1 cells; assay: Cancer cell line viability screen (alamarBlue), PANC1; details: Homo sapiens, PANC-1, 72 h, read-out: IC50 PANC1
Procedure: as §1, §2

[4] = system: A-431 cells; assay: Cancer cell line viability screen (alamarBlue), A431; details: Homo sapiens, A-431, 72 h, read-out: IC50 A431
Procedure: as §1
(§3) Cells were seeded in 384-well plates and were treated with test compound in quadruplicate 24 h after plating. Cell viability was assessed at 72 h using alamarBlue (ThermoFisher, Waltham, MA, USA). […] IC50 values were determined by nonlinear regression using GraphPad PrismTM software (GraphPad Software Inc., San Diego, CA, US).

[5] = system: 5637 cells; assay: Cancer cell line viability screen (alamarBlue), 5637
Procedure: as §1, §2

[6] = system: U-CH2 cells; assay: Cancer cell line viability screen (alamarBlue), UCH2; details: UCH2, 72 h, read-out: IC50 UCH2
Procedure: as §1, §3

[7] = system: kinases in SUM159 cell lysates; assay: MIBS kinome profiling (MIB-MS competitive displacement); format: binding; details: 1 μM compound vs DMSO, SUM159 lysate
Procedure: We then assessed the kinome profile of thiadiazinones 16, 17, and 26 all at 1 μM using a multiplexed kinase inhibitor bead set and quantitative mass spectrometry for detection of kinase peptides (MIB-MS). The MIB-MS proteomics was able to detect between 350 and 400 kinases in the cell lysates and competitive displacement of specific kinases from the beads was used to determine the kinome profile of the thiadiazinone kinase inhibitors.
Previously described. Briefly, multiplexed inhibitor beads (MIBS) affinity chromatography/MS analysis: SUM159 cells were cultured in a 50:50 mixture of DMEM and Nutrient Mixture F-12 medium (Gibco) supplemented with 5% fetal bovine serum, 1% anti/anti, […] insulin, and […] hydrocortisone. Cells were maintained at 37 °C in a humidified 5% CO2 atmosphere. SUM159 cells were grown to 80% confluency, washed twice with PBS, and harvested by scraping cells in lysis buffer [50 mM HEPES, pH 7.5, 150 mM NaCl, 0.5% Triton X-100, 1 mM EDTA, 1 mM EGTA, 10 mM NaF, 2.5 mM Na3VO4, complete protease inhibitor cocktail (Roche, Basel, Switzerland), phosphatase inhibitor cocktail 2, and 3 (Sigma, St. Louis, MO, USA)]. Lysates were sonicated then clarified by centrifugation at 14000 V g for 15 min at 4 °C. Lysate was then filtered through a […] syringe filter and frozen at −80 °C until use. Protein concentration was quantified using a Bradford assay the day of the experiment. DMSO or the indicated concentration of 16, 17, and 26 were added to lysate containing 4 mg of total protein. Lysates were vortexed briefly then incubated for 30 min on ice. Kinases were affinity purified as previously described. Briefly, lysates were diluted to 1.33 mg mL^−1 with lysis buffer then NaCl concentration brought to 1 M.
Diluted lysates were passed over a mixture of […] of settled beads of each of the following inhibitors conjugated to ECH Sepharose beads: Purvalanol B, PP58, VI-16832, UNC21474A, UNC8088A, and […] of settled beads conjugated to CTx-0294885 and VI-16832 [69]. The kinase inhibitor–bead conjugates were previously equilibrated in high-salt buffer (50 mM HEPES pH 7.5, 1M NaCl, 0.5% Triton X-100, 1 mM EDTA, and 1 mM EGTA). MIBs columns were sequentially washed with high-salt buffer, low-salt buffer (50 mm HEPES pH 7.5, 150 mM NaCl, 0.5% Triton X-100, 1 mM EDTA, and 1 mM EGTA), and SDS buffer (50 mm HEPES pH 7.5, 150 mm NaCl, 0.5% Triton X-100, 1 mm EDTA, 1 mm EGTA, and 0.1% SDS). Proteins were eluted by boiling samples in elution buffer (100 mM Tris·HCl pH 6.8, 0.5% SDS, and 1% β-mercaptoethanol) for 15 min twice. Dithiothreitol (DTT) was added to a final concentration of 5 mm and samples were incubated at 60 °C for 25 min. Samples were then cooled to room temperature on ice and alkylated by adding iodoacetamide to a final concentration of 20 mm for 30 min in the dark at room temperature. Samples were then concentrated in 10K Amicon Ultra centrifugal concentrators (Millipore, Burlington, MA, USA) followed by methanol and chloroform precipitation of proteins. The final protein pellets were re-suspended in 50 mM HEPES pH 8.0 and incubated with trypsin at 37 °C overnight. Residual detergent was removed by three sequential ethyl acetate extractions then desalted using Pierce C18 spin columns (Thermo Scientific, Waltham, MA, USA) according to the manufacturer’s protocol.

[8] = system: WS-1 cell line; assay: Toxicity control viability screen (alamarBlue), WS-1 skin fibroblasts; details: WS1, 72 h, read-out: IC50 WS-1
Procedure: as §1, §2

[9] = Chemical stability of thiadiazinones under aqueous, nucleophile, oxidizing and reducing conditions; format: physicochemical; details: tested similarly to 3,5-bis(phenylamino)-4H-1,2,6-thiadiazin-4-one: neutral, acidic, slightly basic aqueous, amine or thiol nucleophiles
Description: It is important to note that the stability of dianilinothiadiazinones in biological systems has previously been assessed.

[10] = system: U-CH1 cells; assay: Cancer cell line viability screen (alamarBlue), UCH1; details: UCH1, 72 h, read-out: IC50 UCH1
Procedure: as §1, §3

[11] = system: DU145 cells; parameters: method as in PMID 28373427; details: positive control; cited from earlier work
[12] = system: A-431 cells; details: read-out: IC50 A431, positive control; cited from earlier work
[13] = system: MCF-7 cells; details: read-out: IC50 MCF7, positive control; cited from earlier work
[14] = system: WS-1 cell line; details: read-out: IC50 WS-1, positive control; cited from earlier work
[15] = system: PANC-1 cells; parameters: method as in PMID 22487525; details: positive control; read-out: IC50 PANC1, positive control; cited from earlier work
[16] = system: 5637 cells; parameters: method as in PMID 23887605; details: positive control; cited from earlier work

O=c1c(Nc2cccc(O)c2)nsnc1-c1ccnc2[nH]ccc12 [Compound 16, 3-[(3-Hydroxyphenyl)amino]-5-(1H-pyrrolo[2,3-b]pyridin-4-yl)-4H-1,2,6-thiadiazin-4-one]
melting point: 326 to 327 °C
pIC50 [1]: 4.39
pIC50 [2]: 4.74
pIC50 [3]: 4.48
pIC50 [4]: < 4.00
increase in potency on the bladder cancer cell line ([5]; 16 relative to methoxy analogue 15): 10 fold
pIC50 ([5]; 72 h, read-out: IC50 5637): 5.80
pIC50 [6]: < 4.00
kinases competitively displaced from the beads (hits) [7]: weak interactions on MAP4K5, MAP4K3, PRKCD, and PKN1 just below the threshold
kinome profile ([7]; 350-400 kinases detected): narrow spectrum kinome profile
pIC50 [8]: < 4.00
stability [9]: the same results
pIC50 [10]: 4.34

CC(=O)O[C@@]12CO[C@@H]1C[C@H](O)[C@@]1(C)C(=O)[C@H](O)C3=C(C)[C@@H](OC(=O)[C@H](O)[C@@H](NC(=O)OC(C)(C)C)c4ccccc4)C[C@@](O)([C@@H](OC(=O)c4ccccc4)[C@H]21)C3(C)C [docetaxel]
pIC50 [11]: 8.30

CS(=O)(=O)CCNCc1ccc(-c2ccc3ncnc(Nc4ccc(OCc5cccc(F)c5)c(Cl)c4)c3c2)o1 [lapatinib]
pIC50 [12]: 7.00
pIC50 [13]: 5.20
pIC50 [14]: 4.89

Cc1[nH]c2ccccc2c1CCNCc1ccc(/C=C/C(=O)NO)cc1 [panobinostat]
pIC50 [15]: 6.00

Cc1ccc(Nc2nccc(N(C)c3ccc4c(C)n(C)nc4c3)n2)cc1S(N)(=O)=O [pazopanib]
pIC50 [16]: 4.82
